Two compounds from US8598145B2, “Mitochondrially delivered anti-cancer compounds” (priority 2008, dated 2013) can be followed below.

One assay has as its system AE-17. Kind of assay: MTT viability assay (IC50). Format: cell-based, mouse. The conditions noted are these: AE-17, ~60% confluency. The source says:
The following cell lines used in this study were obtained from ATCC, unless specified otherwise: Human T lymphoma cells Jurkat, human mesothelioma cells Meso-I, MM-BI, Ist-Mes, Ist-Mes-2 (Pass, H. I. et al. Characteristics of nine newly derived mesothelioma cell lines. Ann. Thorac. Surg. 59, 835-844 (1995)), human breast cancer cells MCF-7 (erbB2-low) and MDA-MB-453 (erbB2-high), human colorectal cells HCT-116, human hepatocarcinoma cells Huh-7, mouse mesothelioma cells AE17 (Jackaman, C. et al. IL-2 intratumoral immunotherapy enhances CD8+ T cells that mediate destruction of tumor cells and tumor-associated vasculature: a novel mechanism for IL-2. J. Immunol. […]
(§1) Toxicity of α-TOS, VE11S (“VES”), MitoVE3S, MitoVE5S, MitoVE7S, MitoVE9S, MitoVE11S (“MitoVES”), MitoVE11AE (“MitoVEAE”), MitoVE11F (“MitoVEF”), MitoVE11M (“MitoVEM”), and VES4TPP towards cancer cells was assessed on the basis of IC50, as detailed in Turanek, J., et al. ((2008). Liposomal formulation of vitamin E analogs as an efficient and selective anti-cancer treatment. Clin. Cancer Res. (submitted)). […]
(In general: Tetrazolium assays rely on reduction of a dye to a coloured formazan, in cell work by metabolically active cells.)

Another assay concerns H9c2. Kind of assay: MTT viability assay (IC50). Format: cell-based, rat. As to conditions: H9c2, ~60% confluency.
Source text: (§2) The following cell lines used in this study were obtained from ATCC, unless specified otherwise: Human T lymphoma cells Jurkat, human mesothelioma cells Meso-I, MM-BI, Ist-Mes, Ist-Mes-2 (Pass, H. I. et al. Characteristics of nine newly derived mesothelioma cell lines. Ann. Thorac. Surg. 59, 835-844 (1995)), human breast cancer cells MCF-7 (erbB2-low) and MDA-MB-453 (erbB2-high), human colorectal cells HCT-116, human hepatocarcinoma cells Huh-7, mouse mesothelioma cells AE17 (Jackaman, C. et al. IL-2 intratumoral immunotherapy enhances CD8+ T cells that mediate destruction of tumor cells and tumor-associated vasculature: a novel mechanism for IL-2. J. Immunol. 171, […] (2003), human non-malignant mesothelial cells Met-5A, […] (Claycomb, W. C. et al. HL-1 cells: a cardiac muscle cell line that contracts and retains phenotypic characteristics of the adult cardiomyocyte. Proc. Natl. Acad. Sci. USA 95, 2979-2984 […]) and H9c2, and the human endothelial-like cells EAhy926 (Edgell, C. J., McDonald, C. C. & Graham, J. B. Permanent cell line expressing human factor VIII-related antigen established by hybridization. Proc. Natl. Acad. Sci. USA 80, 3734-3737 (1983)). Jurkat cells were grown in the RPMI medium while DMEM was used for other malignant cell lines and for Met-5A cells, supplemented with 10% FCS and antibiotics. HL-1 cells, maintained in fibronectin/gelatine-coated dishes, were grown in the Claycomb medium supplemented with noradrenalin (Claycomb, W. C. et al. HL-1 cells: a cardiac muscle cell line that contracts and retains phenotypic characteristics of the adult cardiomyocyte. Proc. Natl. Acad. Sci. USA 95, 2979-2984 […]), EAhy926 cells were grown in complete DMEM supplemented with HAT (Edgell, C. J., McDonald, C. C. & Graham, J. B. Permanent cell line expressing human factor VIII-related antigen established by hybridization. Proc. Natl. Acad. Sci. USA 80, 3734-3737 (1983)). Cells deficient in mtDNA (ρ^0 phenotype) were prepared as detailed in Weber, T. et al., (Mitochondria play a central role in apoptosis induced by α-tocopheryl succinate, an agent with anticancer activity. Comparison with receptor-mediated pro-apoptotic signaling. Biochemistry 42, 4277-4291 (2003)). Acquisition of the ρ^0 phenotype was confirmed by lack of expression by the cells of the mtDNA-encoded cytochrome c oxidase subunit II (COXII not shown). Chinese hamster lung fibroblasts deficient in complex I (B10 cells) (See, B. B. et al. Molecular remedy of complex I defects: rotenone-insensitive internal NADH-quinone oxidoreductase of Saccharomyces cerevisiae mitochondria restores the NADH oxidase activity of complex I-deficient mammalian cells. Proc. Natl. Acad. Sci. USA 95, 9167-9171 (1998)) and complex II (CybL^−/−; B9 cells) (Oostveen, F. G., Au, H. C., Meijer, P. J. & Scheffler, I. E. A Chinese hamster mutant cell line with a defect in the integral membrane protein CII-3 of complex II of the mitochondrial electron transport chain. J. Biol. Chem. 270: 26104-26108 (1995)) as well as the parental cells (B1 cells) (Oostveen, F. G., Au, H. C., Meijer, P. J. & Scheffler, I. E. A Chinese hamster mutant cell line with a defect in the integral membrane protein CII-3 of complex II of the mitochondrial electron transport chain. J. Biol. Chem. 270: 26104-26108 (1995)) were grown in DMEM with 10% FCS, antibiotics, 10 mg/ml glucose and non-essential aminoacids.
as §1

The test system of another assay is HL-1. Briefly: MTT viability assay (IC50). Format: cell-based, rat. As to conditions: HL-1, ~60% confluency.
Source text: as §2, §1

Assay [1] concerns Bax/Bak double knockout Jurkat cell line. Kind of assay: Apoptosis assay of FIG. 3B. The class given is cell-based, human. The conditions noted are these: α-TOS 50 μM, MitoVES 5 μM. Here is the method:
3B—Parental, Bax^−/− and […] Jurkat cells were exposed to α-TOS (T) at 50 μM and MitoVES (M) 5 μM, and apoptosis assessed.
Toxicity of α-TOS, VE11S (“VES”), MitoVE3S, MitoVE5S, MitoVE7S, MitoVE9S, MitoVE11S (“MitoVES”), MitoVE11AE (“MitoVEAE”), MitoVE11F (“MitoVEF”), MitoVE11M (“MitoVEM”), and VES4TPP towards cancer cells was assessed on the basis of IC50, as detailed in Turanek, J., et al. ((2008). Liposomal formulation of vitamin E analogs as an efficient and selective anti-cancer treatment. Clin. Cancer Res. (submitted)). Apoptosis was assessed using the Annexin V method (Weber, T. et al. Mitochondria play a central role in apoptosis induced by α-tocopheryl succinate, an agent with anticancer activity. Comparison with receptor-mediated pro-apoptotic signaling. Biochemistry 42, 4277-4291 (2003)) and dissipation of the mitochondrial inner transmembrane potential was estimated using the polychromatic probe JC-1 (Molecular Probes) (Weber, T. et al. Mitochondria play a central role in apoptosis induced by α-tocopheryl succinate, an agent with anticancer activity. Comparison with receptor-mediated pro-apoptotic signaling. Biochemistry 42, 4277-4291 (2003)).

Another assay relates to adherent MCF7 cells. Briefly: Drug induced cell death in adherent MCF7 cells (FIG. 8). The class given is cell-based, human. The conditions noted are these: 5 μM MitoVES, 50 μM α-TOS or 10 μM parthenolide. Here is the method: (§3) Adherent MCF7 cells and the corresponding mammosphere cells (MS) were cultured and assessed for morphological changes by microscopy (A) and for expression levels of markers as indicators of “sternness” by RT-PCR (B) and flow cytometry (C), including the expression of CD44 and CD24 (D). The adherent MCF7 cells (E) and the MS cells (F) were treated with 5 μM MitoVES, 50 μM α-TOS or 10 μM parthenolide and assessed for their sensitivity to drug induced cell death. […] Adherent MCF7 cells (I) and MS cells (J) were treated for 3 h with α-TOS (50 μM) or MitoVES homologues containing different lengths in the aliphatic side chain (5 μM each, either 11, 7 or 5 carbon chain in length) and the treated cells assessed for production of reactive oxygen species (ROS) by flow cytometry.

For assay [2], the system named is MS cells derived from MCF7 cells. Briefly: Drug induced cell death in mammosphere cells (FIG. 8). The conditions noted are these: for sensitivity of MS cells to drug induced cell death: 5 μM MitoVES, 50 μM α-TOS or 10 μM parthenolide. The class given is cell-based, human. Here is the method:
as §3

For orientation: IC50 means the concentration that gives 50% inhibition. `Cc1c(C)c2c(c(C)c1OC(=O)CCC(=O)[O-])CCC(C)(CCCCCCCCCCC[P+](c1ccccc1)(c1ccccc1)c1ccccc1)O2` (stereo not shown) [MitoVE11S]: the IC50 with AE-17 turned out to be 3.1 ± 0.7 µM; with H9c2 it was 54 ± 8 µM; with HL-1 it was 48 ± 6 µM. Moreover, the “apoptosis in Bax/Bak double deficient Jurkat cells” value in assay [1] is “extremely resistant”. In the assay with adherent MCF7 cells, the “sensitivity of adherent MCF7 cells to drug induced cell death” value is listed as “more so”. In assay [2], the “sensitivity of MS cells to drug induced cell death” value is on record as “very sensitive”. The “apoptosis of MS cells” value in assay [2] (within 5-6 h after adding the drug) is reported as above 90%.

With `Cc1c(C)c2c(c(C)c1OC(=O)CCC(=O)O)CC[C@@](C)(CCC[C@H](C)CCC[C@H](C)CCCC(C)C)O2` [α-TOS, α-tocopheryl succinate, reference compound], the IC50 in the assay with AE-17 was 33 ± 5 µM; in the assay with H9c2, above 100 µM; in the assay with HL-1, above 100 µM. Further, in assay [1], the “apoptosis in Bax/Bak double deficient Jurkat cells” value is “still mediates some level of killing”. Moreover, the “sensitivity of adherent MCF7 cells to drug induced cell death” value with adherent MCF7 cells was “sensitive to killing”. The “sensitivity of MS cells to drug induced cell death” value in assay [2] is given as “resistant”.
